Experiment [1] concerns the target T1, RARα (Homo sapiens, UniProt P10276).
T1 sequence (P10276 1-462): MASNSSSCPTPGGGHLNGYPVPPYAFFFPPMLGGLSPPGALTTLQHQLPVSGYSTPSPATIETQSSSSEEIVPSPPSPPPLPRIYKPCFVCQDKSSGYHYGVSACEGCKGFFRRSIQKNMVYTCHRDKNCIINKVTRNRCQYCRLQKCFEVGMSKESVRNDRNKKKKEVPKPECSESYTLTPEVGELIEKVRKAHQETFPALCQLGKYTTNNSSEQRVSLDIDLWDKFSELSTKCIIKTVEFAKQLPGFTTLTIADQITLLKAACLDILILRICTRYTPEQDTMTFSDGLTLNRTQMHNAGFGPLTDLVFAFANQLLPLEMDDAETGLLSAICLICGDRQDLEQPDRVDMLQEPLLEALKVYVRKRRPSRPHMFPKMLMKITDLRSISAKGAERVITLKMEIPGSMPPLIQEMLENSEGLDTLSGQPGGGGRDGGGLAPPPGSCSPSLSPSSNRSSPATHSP
The experiment can be described thus: ligand binding assay, RARα. The following applies: last item of cell, read-out: RAR α Kd. The text has this:
Assays described below measure the ability of a compound to bind to, and/or activate various retinoid receptor subtypes. When in these assays a compound binds to a given receptor subtype and activates the transcription of a reporter gene through that subtype, then the compound is considered an agonist of that receptor subtype. […] In the below described assays the ability of the compounds to bind to RARα, RARβ, RARγ, RXRα, RXRβ and RXRγ receptors, and the ability or inability of the compounds to activate transcription of a reporter gene through these receptor subtypes can be tested.
A holoreceptor transactivation assay and a ligand binding assay which measure the antagonist/agonist like activity of the compounds of the invention, or their ability to bind to the several retinoid receptor subtypes, respectively, are described in published PCT Application No. WO WO93/11755 (particularly on pages 30-33 and 37-41) published on Jun. 24, 1993, the specification of which is also incorporated herein by reference. A detailed experimental procedure for holoreceptor transactivations has been described by Heyman et al. Cell 68, 397-406, (1992); Allegretto et al. J. Biol. Chem. 268, 26625-26633, and Mangelsdorf et al. The Retinoids: Biology, Chemistry and Medicine, pp 319-349, Raven Press Ltd., New York, which are expressly incorporated herein by reference. The results obtained in this assay are expressed in EC50 numbers, as they are also in the chimeric receptor transactivation assay. The results of ligand binding assay are expressed in Kd numbers. (See Cheng et al. Biochemical Pharmacology Vol. 22 pp 3099-3108, expressly incorporated herein by reference.)
The results of the ligand binding assay for several preferred compounds of the invention are included in Table 1.

Experiment [2] deals with T2, P450RAI-2 (Homo sapiens, UniProt Q9NR63).
T2 construct: expressed in transfected cells; host or cells: HeLa
T2 sequence (Q9NR63 1-512): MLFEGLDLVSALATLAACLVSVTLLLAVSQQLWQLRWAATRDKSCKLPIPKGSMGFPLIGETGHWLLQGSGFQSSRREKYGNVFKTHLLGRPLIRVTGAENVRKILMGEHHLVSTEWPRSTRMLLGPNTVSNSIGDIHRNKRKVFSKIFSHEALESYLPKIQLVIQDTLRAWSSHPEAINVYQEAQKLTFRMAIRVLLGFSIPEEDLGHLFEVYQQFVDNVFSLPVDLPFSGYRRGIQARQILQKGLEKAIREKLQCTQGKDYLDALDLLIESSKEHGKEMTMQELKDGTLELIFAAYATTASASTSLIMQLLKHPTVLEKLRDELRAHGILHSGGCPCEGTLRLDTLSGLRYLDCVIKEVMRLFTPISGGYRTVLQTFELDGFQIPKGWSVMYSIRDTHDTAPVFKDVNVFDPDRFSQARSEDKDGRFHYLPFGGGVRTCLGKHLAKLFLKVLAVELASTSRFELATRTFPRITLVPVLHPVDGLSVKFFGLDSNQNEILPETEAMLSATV
The experiment can be described thus: P450RAI-2 cell-based inhibitor assay ([3H]-RA metabolism, intact cells). The conditions noted are these: P450RAI-2 stably transfected HeLa cells, 3 hours at 37° C., all-trans-RA metabolism; read-out: P450RAI INHIBITION DATA RAI-2 Intact Cells IC50. On the procedure:
FIG. 1 is a schematic representation of the P450RAI cell based assay utilized to evaluate the ability of the compounds of the invention to inhibit the Cytochrome P450RAI enzyme.
P450RAI-1 and P450RAI-2 Cell-Based Inhibitor Assay:
P450RAI-1 stably transfected HeLa cells, or P450RAI-2 stably transfected HeLa cells, as applicable, are maintained in […] tissue culture dishes in Modified Eagle's Medium (MEM) containing 10% Fetal Bovine Serum (FBS) and 100 μg/ml hygromycin. Exponentially growing cells are harvested by incubating in trypsin. Cells are then washed with 1X Phosphate Buffered Saline (PBS) and plated in a 48-well plate at 5×10^5 cells in 0.2 ml MEM medium containing 10% FBS and 0.05 μCi [^3H]-RA in the presence or absence of increasing concentrations of the test compounds. The compounds are diluted in 100% DMSO and then added in triplicate wells at either 10, 1 or 0.1 μM final concentration. As a positive control for RA metabolism inhibition, cells are also incubated with ketoconazole at 100, 10 and 1 μM. Cells are incubated for 3 hours at 37° C. The retinoids are then extracted using the procedure of Bligh et al. (1959) Canadian Journal of Biochemistry 37, 911-917, modified by using methylenechloride instead of chloroform. The publication Bligh et al. (1959) Canadian Journal of Biochemistry 37, 911-917 is specifically incorporated herein by reference. The water soluble radioactivity is quantified using a β-scintillation counter. IC50 values represent the concentration of inhibitor required to inhibit all-trans-RA metabolism by 50 percent and are derived manually from log-transformed data.

Here are results for ten compounds from US7351737B2, “4-[(8-substituted)-6-chromanoyl]-and 4-[8-substituted)-chroman-6-YL-ethynyl]-benzoic and phenylacetic acids, their esters and salts having cytochrome P450RAI inhibitory activity” (Allergan, Inc., priority 2002, dated 2008).

Consider `C#Cc1cc(C(=O)Oc2ccc(CC(=O)O)cc2)cc2c1OC(C)(C)CC2(C)C` [Compound 1, 8-Ethynyl-2,2,4,4-tetramethyl-chroman-6-carboxylic acid 4-carboxymethyl-phenyl ester], for which the Kd in experiment [1] was more than 10000 nM. Also, the 50% inhibitory concentration (IC50) in experiment [2] is 14 nM.
`C#Cc1cc(C(=O)Oc2ccc(CC(=O)OCC)cc2)cc2c1OC(C)(C)CC2(C)C` [Compound 2, 8-Ethynyl-2,2,4,4-tetramethyl-chroman-6-carboxylic acid 4-ethoxycarbonylmethyl-phenyl ester]: the Kd in experiment [1] was more than 10000 nM. Moreover, the IC50 in experiment [2] was found to be 6000 nM.
As to `C#Cc1cc(C(=O)Oc2ccc(CC(=O)OCOC(C)=O)cc2)cc2c1OC(C)(C)CC2(C)C` [Compound 3, 8-Ethynyl-2,2,4,4-tetramethyl-chroman-6-carboxylic acid 4-acetoxymethoxycarbonylmethyl-phenyl ester], the Kd in experiment [1] was more than 10000 nM. In experiment [2], the half-maximal inhibitory concentration (IC50) is 80 nM.
Consider `C#Cc1cc(C(=O)Oc2ccc(CC(=O)O)c(F)c2)cc2c1OC(C)(C)CC2(C)C` [Compound 4, 8-Ethynyl-2,2,4,4-tetramethyl-chroman-6-carboxylic acid-4-carboxymethyl-3-fluoro-phenyl ester], for which the dissociation constant Kd in experiment [1] stood at 3470 nM. In addition, in experiment [2], the IC50 worked out at 60 nM.
In the case of `C#Cc1cc(C(=O)Oc2ccc(CC(=O)OCOC(C)=O)c(F)c2)cc2c1OC(C)(C)CC2(C)C` [Compound 5, 8-Ethynyl-2,2,4,4-tetramethyl-chroman-6-carboxylic acid 4-acetoxymethoxycarbonylmethyl-3-fluoro-phenyl ester], the equilibrium dissociation constant (Kd) in experiment [1] amounted to 4680 nM. Also, the IC50 in experiment [2] came to 30 nM.
With `CC1(C)CC(C)(C)c2cc(C(=O)Oc3ccc(CC(=O)O)c(F)c3)cc(C#N)c2O1` [Compound 32, 8-Cyano-2,2,4,4-tetramethyl-chroman-6-carboxylic acid-4-carboxymethyl-3-fluoro-phenyl ester], the Kd in experiment [1] was more than 10000 nM. Also, the half-maximal inhibitory concentration (IC50) in experiment [2] was 900 nM.
Turning to `CC(=O)OCOC(=O)Cc1ccc(OC(=O)c2cc(C#N)c3c(c2)C(C)(C)CC(C)(C)O3)cc1F` [Compound 33, 8-Cyano-2,2,4,4-tetramethyl-chroman-6-carboxylic acid 4-acetoxymethoxycarbonylmethyl-3-fluoro-phenyl ester], the Kd in experiment [1] was more than 10000 nM. The concentration for half-maximal inhibition (IC50) in experiment [2] is 700 nM.
Consider `C#Cc1cc(C#Cc2ccc(CC(=O)O)cc2)cc2c1OC(C)(C)CC2(C)C` [Compound 40, [4-(8-Ethynyl-2,2,4,4-tetramethyl-chroman-6-ylethynyl)-phenyl]-acetic acid], for which the dissociation constant Kd in experiment [1] was more than 10000 nM. Further, the IC50 in experiment [2] amounted to 7 nM.
On to `C#Cc1cc(C#Cc2ccc(CC(=O)O)c(F)c2)cc2c1OC(C)(C)CC2(C)C` [Compound 41, [4-(8-Ethynyl-2,2,4,4-tetramethyl-chroman-6-ylethynyl)-2-fluoro-phenyl]-acetic acid], for which the Kd in experiment [1] was more than 10000 nM. Besides, the half-maximal inhibitory concentration (IC50) in experiment [2] worked out at 4 nM.
As for `C#CCc1cc(C#Cc2ccc(CC(=O)O)cc2)cc2c1OC(C)(C)CC2(C)C` [Compound 49], the dissociation constant (Kd) in experiment [1] came to 7240 nM. Besides, the IC50 in experiment [2] came to 120 nM.

Usually Kd stands for the concentration at which binding is half-saturated. In general, IC50 refers to the point on the concentration scale where inhibition reaches its midpoint.
